The values that follow come from ChEMBL document CHEMBL4190257, “Discovery of phenylsulfonyl acetic acid derivatives with improved efficacy and safety as potent free fatty acid receptor 1 agonists for the treatment of type 2 diabetes” (Eur J Med Chem, 2017).

Active and inactive are the calls of the source. The calls are words filed in the database; no cut-off is given here.

Series [1] is described as follows: Drug metabolism in Sprague-Dawley rat plasma assessed as (2S,3R,4S,5S,6R)-3,4,5-trihydroxy-6-(hydroxymethyl)tetrahydro-2H-pyran-2-yl 2-(4-((2'-chlorobiphenyl-3-yl)methoxy)phenylsulfonyl)acetate formation at 10 mg/kg, po measured up to 24 hrs post dose by LC-PDA-MS/MS analysis. The class given is ADME, organism-based. The note with it: in vivo.
The test system of series [2] is Rattus norvegicus. Put plainly: Antidiabetic activity in po dosed Sprague-Dawley rat assessed as increase in insulin secretion administered as single dose followed by subsequent glucose challenge at 60 mins post administration measured up to 120 mins post dose by ELISA. It counts as functional, organism-based. (In general: In an ELISA, binding on a coated surface is turned into a signal by an enzyme label.)

Series [3] deals with Rattus norvegicus. The experiment in a line: Hypoglycemic effect in fasting Sprague-Dawley rat at 30 mg/kg, po measured up to 180 mins post dose. To be noted: in vivo, 3 h. The class given is ADME, organism-based.
For series [4], the system named is Rattus norvegicus. The experiment in a line: Antidiabetic activity in po dosed Sprague-Dawley rat assessed as reduction in blood glucose AUC (0 to 120 mins) administered as single dose followed by subsequent glucose challenge at 60 mins post administration by OGTT method. It counts as functional.
Series [5] addresses T1, Free fatty acid receptor 1 (Homo sapiens, UniProt O14842). Put plainly: Agonist activity at human FFA1 receptor expressed in CHO cells assessed as increase in intracellular calcium flux at 10 uM by Fluo 4AM dye-based FLIPR assay relative to TAK-875. The class given is functional, cell-based. In general terms: Calcium assays in cells follow changes in intracellular calcium, usually with a dye or a luminescent sensor.

Series [6] is described as follows: AUC (0 to 24 hrs) in fasted Sprague-Dawley rat at 10 mg/kg, po administered as single dose measured up to 24 hrs post dose by LC-PDA-MS/MS analysis. The class given is ADME, organism-based. The arrangement: time < 24 hr, dose 10 mg/kg, route oral. To be noted: in vivo.
Series [7] has as its system Mus musculus. The experiment in a line: Renal toxicity in ICR mouse assessed as BUN level at 30 mg/kg, dosed daily via oral gavage for 30 days (reference value: 7.4 +/- 1.6 mmol/L). The note with it: in vivo, 720 h. It counts as organism-based.
Series [8] can be described thus: Cmax in fasted Sprague-Dawley rat at 10 mg/kg, po administered as single dose measured up to 24 hrs post dose by LC-PDA-MS/MS analysis. It counts as ADME, organism-based. Set-up: dose 10 mg/kg, route oral. To be noted: in vivo.
In series [9] the test system is Rattus norvegicus. Put plainly: Antidiabetic activity in po dosed Sprague-Dawley rat assessed as reduction in plasma glucose excursion administered as single dose followed by subsequent glucose challenge at 60 mins post administration measured up to 120 mins post dose by OGTT method. It counts as functional, organism-based.
Series [10] has as its system HepG2. Put plainly: Apoptotic cytotoxicity in human HepG2 cells assessed as caspase-3/7 activity at 30 uM after 24 hrs by caspase-glo-3/7 assay relative to staurosporine. The class given is cell-based. The note with it: hepg2, 24 h.
Series [11] in a line: Octanol/phosphate buffer distribution coefficient, log D of the compound at 100 uM at pH 7.4 after 24 hrs by shake flask method. The class given is physicochemical.
In series [12] the test system is Mus musculus. The experiment in a line: Renal toxicity in ICR mouse assessed as serum creatinine level at 30 mg/kg, dosed daily via oral gavage for 30 days (reference value: 40.9 +/- 2.6 umol/L). The class given is organism-based. The note with it: in vivo, 720 h.
The test system of series [13] is Rattus norvegicus. Put plainly: Antidiabetic activity in po dosed Sprague-Dawley rat assessed as increase in blood insulin AUC (0 to 120 mins) administered as single dose followed by subsequent glucose challenge at 60 mins post administration by ELISA method. It counts as functional.
The subject of series [14] is Mus musculus. Put plainly: Hepatotoxicity in ICR mouse assessed as serum TBIL level at 30 mg/kg, dosed daily via oral gavage for 30 days (reference value: 4.3 +/- 1.3 IU/L). The class given is toxicity, organism-based. The note with it: in vivo, 720 h.
Series [15] has as its system Mus musculus. The experiment in a line: Hepatotoxicity in ICR mouse assessed as serum ALT level at 30 mg/kg, dosed daily via oral gavage for 30 days (reference value: 34.7 +/- 5.6 IU/L). To be noted: in vivo, 720 h. The class given is toxicity, organism-based.
Series [16] in a line: Clearance in fasted Sprague-Dawley rat at 10 mg/kg, po administered as single dose measured up to 24 hrs post dose by LC-PDA-MS/MS analysis. It counts as ADME, organism-based. To be noted: in vivo.
The test system of series [17] is Mus musculus. Put plainly: Antihyperglycemic activity in high fat diet fed/streptozotocin-induced type 2 diabetic C57BL/6 mouse model assessed as reduction in plasma glucose AUC (0 to 120 mins) at 20 mg/kg, po administered as single dose followed by subsequent glucose challenge at 60 mins post administration by OGTT method. It counts as functional, organism-based.

Series [18] relates to Mus musculus. The experiment in a line: Hepatotoxicity in ICR mouse assessed as serum AST level at 30 mg/kg, dosed daily via oral gavage for 30 days (reference value: 135.6 +/- 15.2 IU/L). It counts as toxicity, organism-based. To be noted: in vivo, 720 h.
Series [19] is described as follows: Drug metabolism in Sprague-Dawley rat plasma assessed as 2-(2-(4-((2'-chlorobiphenyl-3-yl)methoxy)phenylsulfonyl)acetamido)ethanesulfonic acid formation at 10 mg/kg, po measured up to 24 hrs post dose by LC-PDA-MS/MS analysis. The class given is ADME, organism-based. To be noted: in vivo.
Series [20] addresses T1, Free fatty acid receptor 1. The experiment in a line: Agonist activity at human FFA1 receptor expressed in CHO cells assessed as increase in intracellular calcium flux by Fluo 4AM dye-based FLIPR assay. It counts as functional, cell-based.
A short description of series [21]: Half life in fasted Sprague-Dawley rat at 10 mg/kg, po administered as single dose measured up to 24 hrs post dose by LC-PDA-MS/MS analysis. The class given is ADME, organism-based. The note with it: in vivo.
Series [22] in a line: Drug metabolism in Sprague-Dawley rat plasma assessed as beta-oxidation metabolite formation at 10 mg/kg, po measured up to 24 hrs post dose by LC-PDA-MS/MS analysis. The class given is ADME, organism-based. To be noted: in vivo.
Series [23] in a line: Drug metabolism in Sprague-Dawley rat plasma assessed as cytochrome P450-mediated 2'-chlorobiphenyl-3-carboxylic acid formation at 10 mg/kg, po measured up to 24 hrs post dose by LC-PDA-MS/MS analysis. It counts as ADME, organism-based. To be noted: in vivo.

As a reminder, the AUC(0-t) is exposure summed from dosing to a finite time, without extrapolation to infinity. A lower AUC(0-t) goes with less exposure. Broadly, the Cmax is the highest concentration seen after dosing. As a reminder, the logD is the decadic logarithm of the distribution of all forms, ionised or not, between an organic phase and buffer at a given pH. By CL/F is commonly meant the apparent clearance, not corrected for the fraction that reaches the circulation. By EC50 is commonly meant the midpoint of the concentration-response curve. The half-life is how long it takes for the measured level to halve. Read a low half-life as fast loss.

T1 sequence (O14842 whole entry): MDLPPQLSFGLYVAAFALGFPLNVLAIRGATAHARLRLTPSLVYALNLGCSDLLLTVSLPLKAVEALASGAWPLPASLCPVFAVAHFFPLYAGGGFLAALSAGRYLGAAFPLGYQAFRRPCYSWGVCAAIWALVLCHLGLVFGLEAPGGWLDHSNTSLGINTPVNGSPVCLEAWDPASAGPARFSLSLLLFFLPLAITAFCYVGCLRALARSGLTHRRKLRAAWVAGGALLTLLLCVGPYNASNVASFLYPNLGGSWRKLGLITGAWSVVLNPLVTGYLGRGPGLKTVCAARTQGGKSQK

As to `O=C(O)CS(=O)(=O)c1ccc(OCc2cccc(-c3ccccc3Cl)c2)cc1`, the Drug metabolism entry in [1], in series [19], in series [22] and in [23] was “Metabolite_Detected” throughout. Moreover, the Activity result in [2] is “Dose-dependent effect”; in series [3] it was “Non-Toxic”; in series [7] it was 7.9 mmol/L; in [9], “Dose-dependent effect”; in [10], -1.6%; in [12] it was 41.4 µmol/L. In addition, the Activity in [14] was 4.1 IU/L; in [15], 35.4 IU/L; in series [18], 128.2 IU/L. Moreover, the MEC in series [4] and in series [13] was 3 mg/kg each time. Moreover, the Efficacy in series [5] was 115%. In series [6], this compound showed an AUC(0-t) at 24 h of 30200 ng·h/mL. Further, the highest level in series [8] (Cmax) was 2560 ng/mL. Also, in [11], the logD at 24 h, 100 µM stood at 2.47. In addition, in series [16], the CL/F is 2.57 mL/min/kg. Besides, in series [17], the result was Active. Also, in series [20], the 50% effective concentration (EC50) was 28.8 nM. Further, the half-life in series [21] was 5.57 h.
